Reference: ChEMBL document CHEMBL2380220, “Cytotoxic azaphilone alkaloids from Chaetomium globosum TY1” (Bioorg Med Chem Lett, 2013)

The molecules below were run on HepG2 (assay: Cytotoxicity against human HepG2 cells after 72 hrs by SRB assay). Details: HepG2, 72 h.
Type: functional, cell-based
In the case of `C/C=C(\C)C(=O)C1=C2C3=CN(CCO)C(/C=C/[C@@H](C)CC)=CC3=C(Cl)C(=O)[C@@]2(C)OC1=O`, the IC50 is reported as 19.8 µM.
`C/C=C(\C)C(=O)C1=C2C3=COC(/C=C/[C@@H](C)CC)=CC3=C(Cl)C(=O)[C@@]2(C)OC1=O` [CHAETOVIRIDIN E] was tested, and the IC50 was 40.6 µM.
In the case of `CC[C@H](C)/C=C/C1=CC2=C(Cl)C(=O)[C@@]3(C)OC4(O)C(C(=O)O[C@@H](C)[C@@H]4C)C3C2=CO1` (some centres not stated), the IC50 is reported as > 100 µM.
With `C/C=C(\C)C(=O)C1=C2C3=CN(CCCC(=O)O)C(/C=C/[C@@H](C)CC)=CC3=C(Cl)C(=O)[C@@]2(C)OC1=O` the IC50 was 1.7 µM.
Work on `CC[C@H](C)/C=C/C1=CC2=C(Cl)C(=O)[C@@]3(C)OC(=O)C(C(=O)[C@H](C)[C@@H](C)O)=C3C2=CN1CCO` yielded an IC50 of 53.4 µM.
In the case of `CC[C@H](C)/C=C/C1=CC2=C(Cl)C(=O)[C@@]3(C)OC(=O)C(C(=O)[C@H](C)[C@@H](C)O)=C3C2=CO1`, the IC50 is reported as 35.3 µM.
With `CC[C@@]1(O)C(=O)OCc2c1cc1n(c2=O)Cc2cc3ccccc3nc2-1` [CAMPTOTHECIN] the IC50 was 32.3 µM.
